The values that follow come from US20030130121A1, “Novel bacterial isolate and the preparation and use of its active metabolites” (priority 1999, published 2003).

The test system of one test is Stellaria media. As to the kind of experiment: Foliar spraying of Stellaria media with A 153 culture preparations and haterumalide B. The test is classed as in vivo. To be noted: Stellaria media 6-8 leaf stage; 4 ml/4 plants/pot; no concentration factor printed.
The test system of test [1] is green algae (Scenedesmus quadricauda). As to the kind of experiment: Growth of green algae in Z8 medium. In kind it is cell-based. Conditions: concentrations similar to those used for the Lemna minor test; preliminary. The protocol: Additionally, the similar method was used to preliminary test the effect of haterumalide B on the growth of green algae (Scenedesmus quadricauda). Evaporated haterumalide B was dissolved in a sterile Z8 medium with the suspension of algae. Tests were performed in duplicate with suspensions of Scenedesmus quadricauda placed in only sterile Z8 medium as controls.

The next test has as its system M. canis macroconidia. Put plainly: Suppression of spore germination - microtiter plate assay 1. In kind it is cell-based, Microsporum canis var. canis. Conditions: Microsporum canis, read-out: Minimal Inhibitory Concentration (MIC) to totally inhibit spore germination. The method, then:
(§1) To obtain the A. fumigatus conidiospores, the fungus was grown on ME slants for about 2 weeks at 28° C. The F. culmorum and F. oxysporum conidia, the H. annosum basidiospores, the M. canis macroconidia were produced by inoculating fungal plugs on Corn Meal Agar plates (CMA, Difco Ltd.), Hagem Agar plates (5 g glucose, 5 g ME, 0.5 g NH4NO3, 0.5 g KH2PO4, 0.5 g MgSO4×7H2O, 20 g Agar in 1000 ml deionized H2O) and Oat Meal Agar plates (60 g oat meal, 12.5 g Agar in 1000 ml deionized H2O), respectively, for a period of 5 to 10 days at 25° C. Ascospores of S. sclerotiorum were collected during their dispersal from apothecia by entrapping them on the surface of a water agar (12 g Bacto Agar (Difco Ltd)), 1000 ml H2O). Mature spores were then scraped off or washed out from the surface of the agar plates, with 0,5% Bacto Peptone (Difco Ltd) supplemented with 0.01% Tween 80. The P. ultimum sporangia were obtained by. growing the fungus on grass blades (Martin, 1992). The C. albicans stock culture of 1.0×10^6 cfu ml^−1 was prepared from a 24-hours old culture grown on Yeast Malt Agar plates (YM Agar, Difco Ltd) at 37° C. by suspending it in 0.5% Bacto Peptone and adjusting the optical density of this culture to an absorbance of 0.5 at 600 nm. The spore concentration was counted by using a Bürker chamber, and stock spore suspensions were stored at −70 ° C. for further use. The spore concentrations in respective stock suspensions, as well as the spore concentrations and media to culture fungi in a microtiter plate assay, are listed in Table 2 below.
(§2) To follow the activity during purification, HPLC-fractions to be tested were directly collected to 96-well microtiter plates by using a fraction collector (FC 204, Gilson), and mainly the activity to inhibit the germination of F. culmorum conidia and S. sclerotiorum ascospores was tested. […] The solvents were always evaporated, and one hundred μl of spore suspension, suspended in the appropriate media as listed in Table 2, were then distributed into each well. Depending on the fungus tested, the spore germination was monitored after 24 to 96 hours of incubation at 25° C. in darkness except for A. fumigatus and C. albicans which were incubated at 28 ° C. and 37 ° C. Controls were spores suspended in respective culturing media and culturing media only. All tests were done in triplicate and repeated at least twice.
The activity of haterumalide A, B and E, and of pyrrolnitrin to inhibit the spore germination of A. fumigatus, F. culmorum, F. oxysporum, H. annosum, M. canis, P. ultimum and S. sclerotiorum as well as the inhibition of the C. albicans growth was tested by using the microtiter plate assay 1 described in Example 7. […]

The subject of test [2] is S. sclerotiorum sclerotia. Put plainly: Suppression of apothecial formation - microtiter plate assay 2. The test is classed as cell-based, Sclerotinia sclerotiorum. To be noted: for inhibition of apothecial formation of sclerotia: S. sclerotiorum, qualitative; for MIC: Sclerotinia sclerotiorum. The protocol: Twenty four-well microtiter plates were used to test the effect of the purified metabolites on apothecial formation in a concentration range between 0.01 μg ml^−1 and 100 μg ml^−1. To obtain respective concentrations of tested metabolites, the appropriate volume out of the respective metabolite stock solutions of 100 μg ml^−1, 10 μg ml^−1 and 1 μg ml^−1, dissolved in acetonitrile, was distributed into the wells and the solvent was then evaporated. Thereupon, the metabolites were dissolved in sterile H2O and one, or in some tests two, preconditioned sclerotia were placed into each well. Tests were done in triplicate and controls were sclerotia placed in sterile water only.
(§3) The activity of haterumalide A, B and E, and of pyrrolnitrin to inhibit the spore germination of A. fumigatus, F. culmorum, F. oxysporum, H. annosum, M. canis, P. ultimum and S. sclerotiorum as well as the inhibition of the C. albicans growth was tested by using the microtiter plate assay 1 described in Example 7. The effect on apothecial formation of S. sclerotiorum sclerotia was assayed by using microtiter plate assay 2 described in Example 7.

A further test has as its system S. sclerotiorum mycelium. As to the kind of experiment: Suppression of S. sclerotiorum mycelial growth, susceptibility test discs on PDA. In kind it is cell-based, Sclerotinia sclerotiorum. Conditions: S. sclerotiorum; qualitative. The method, then:
For testing effects of haterumalide A, halves of surface sterilized and bisected sclerotia were placed in the center PDA plates (9 cm in diameter) to initiate mycelial growth of S. sclerotiorum. The metabolite, at a concentration from 0.05 to 5 μg ml^−1 diluted in MeOH/H2O (1:1), was then spotted directly onto sterile antimicrobial susceptibility test discs (Oxoid Ltd) located at four equidistant places, giving a total of 0.2 to 20 μg ml^−1 compound per one Petri plate. The treatments were performed in triplicate. Zones of inhibition of mycelial growth were measured after 4 days and reduction of mycelial growth was calculated as a percentage of MeOH/H2O controls.

The next test deals with F. oxysporum conidia. As to the kind of experiment: Suppression of spore germination - microtiter plate assay 1. The test is classed as cell-based. Conditions: Fusarium oxysporum, read-out: Minimal Inhibitory Concentration (MIC) to totally inhibit spore germination. The method, then: as §1, §2, §3
Another test relates to F. culmorum conidia. The test is described as above. The test is classed as cell-based. Conditions: Fusarium culmorum, read-out: Minimal Inhibitory Concentration (MIC) to totally inhibit spore germination. The method, then: as §1, §2, §3
The subject of another test is H. annosum basidiospores. Described as above. The test is classed as cell-based. To be noted: Heterobasidion annosum, read-out: Minimal Inhibitory Concentration (MIC) to totally inhibit spore germination. The protocol:
as §1, §2, §3

Test [3] has as its system A. fumigatus conidiospores. Described as above. To be noted: Aspergillus fumigatus, read-out: Minimal Inhibitory Concentration (MIC) to totally inhibit spore germination. The test is classed as cell-based. The protocol:
as §1, §2, §3

The next test deals with P. ultimum sporangia. The test is described as above. The test is classed as cell-based. To be noted: Globisporangium ultimum, read-out: Minimal Inhibitory Concentration (MIC) to totally inhibit spore germination. The method, then: as §1, §2, §3
The subject of test [4] is S. sclerotiorum ascospores. The test is described as above. The test is classed as cell-based, Sclerotinia sclerotiorum. Conditions: for inhibition of ascospore germination: S. sclerotiorum, qualitative; for MIC: Sclerotinia sclerotiorum, read-out: Minimal Inhibitory Concentration (MIC) to totally inhibit spore germination. The method, then: as §1, §2, §3
Another test relates to Lemna minor. As to the kind of experiment: Differentiation and growth of Lemna minor, 24-well microtiter plates. The test is classed as in vivo. To be noted: for Number of Lemna minor fronts (leaves) per one microtiter plate well, End of test: 10 fronts at beginning, control 36. The protocol:
Twenty four-well microtiter plates were used to test the effect of the purified haterumalide B on differentiation and growth of Lemna minor in a concentration range between 1 μg ml^−1 and 60 μg ml^−1. To obtain respective concentrations of the tested metabolite, the appropriate volume out of the respective metabolite stock solutions of 100 μg ml^−1 and 10 μg ml^−1, dissolved in acetonitrile, was distributed into the wells, and the solvent was then evaporated. Thereupon, the metabolite was dissolved in a sterile Lemna medium and three Lemna minor plants with 10 fronts were placed into each well. Tests were done in duplicate and controls were Lemna minor plants placed in only Lemna medium.

Setting [5] is: read-out: Minimal Inhibitory Concentration (MIC) to totally inhibit apothecial formation of sclerotia, S. sclerotiorum sclerotia.

≈ marks a conversion by molar mass, not a printed value. Entries after “also recorded” stand apart in the source; their conditions may differ. Read-outs that look alike come from different tables or passages of the source. A value given as a limit tells only on which side of the number the result lay.

Protocol for Stellaria media: Fifty per cent strength TSB medium (TSB, 15 g Tryptic Soy Broth (Difco Ltd) and 1000 ml deionized H2O) were used to culture all bacterial isolates. The cultures, 50 ml, 250 ml and 1000 ml, respectively, were grown in 100 ml, 500 ml and 2000 ml Erlenmeyer flasks and were initiated either by transferring a single colony from the TSA plate or by transferring 0.1 ml of a 24-hours old starter inoculum per 5 ml of fresh medium. The cultures were incubated on a rotary shaker (120 rev min^−1) for 48 hours at 20° C. in darkness, and the cell densities obtained were then approximately from 1 to 1.5×10^0 cfu ml^−1. Only 48-hours old cultures were used in the screening and purification procedures
Preparations of the culture of the isolate A 153, namely cell free supernatant, washed cells suspended respectively in buffer and in TSB, cell lysate as well as ethyl acetate and aqueous phase residue extracts of the cell free supernatant and purified haterumalide B, were tested for their effects on growth of Stellaria media, a typical plant weed.
Bacterial cell free supernatants were obtained by centrifugation (Sorvall RC 5B centrifuge, 20000×g, 20 min, 4° C. or 15000×g, 30 min, 4° C.) and subsequent filter-sterilization (Akafilter, Västra Frolunda, Sweden). […]

As for `C=C(COC(=O)C/C(C)=C/[C@@H](O)[C@@H]1OC2CC/C(Cl)=C/C/C=C(/C)[C@@H](OC(C)=O)CC(=O)OC1C2)C(C)=O` (stereo partly shown) [Haterumalide B], in the test on Stellaria media, the “Plants Surviving” value was determined as 0.0. Besides, the “Shot Fresh Weight” value with Stellaria media came out at 0.1 g. Moreover, the “growth of green algae” value in [1] is “inhibits the growth”. The MIC with M. canis macroconidia amounted to 40 µg/mL (≈ 72.3 µM); in test [2] (setting [5]) it was 0.5 µg/mL (≈ 0.904 µM); with F. oxysporum conidia it was 0.8 µg/mL (≈ 1.45 µM); in the test on F. culmorum conidia, 1 µg/mL (≈ 1.81 µM); in the test with H. annosum basidiospores, 20 µg/mL (≈ 36.2 µM); in test [3], 13 µg/mL (≈ 23.5 µM). Moreover, the MIC in the test on P. ultimum sporangia was found to be 1 µg/mL (≈ 1.81 µM); in test [4], 3 µg/mL (≈ 5.42 µM). Moreover, the “inhibition of apothecial formation of sclerotia” value (shortened to “inhibition … of sclerotia”) in test [2] is given as “ability to inhibit”. The “inhibition of mycelial growth” value with S. sclerotiorum mycelium is “ability to inhibit”. Moreover, in test [4], the “inhibition of ascospore germination” value is “ability to inhibit”. The “Number of Lemna minor fronts (leaves) per one microtiter plate well, End of test” value in the test on Lemna minor (1 μg ml-1), in the test with Lemna minor (5 μg ml-1), in the test on Lemna minor (10 μg ml-1), in the test with Lemna minor (30 μg ml-1) and in the test with Lemna minor (60 μg ml-1) was 10 throughout. The “Visible effects on Lemna fronts” value in the test with Lemna minor (at all tested concentrations (1 to 60 μg ml-1)) is “fronts impaired and totally; also recorded: chlorotic”. Also, the “differentiation and growth of Lemna minor” value with Lemna minor (at all tested concentrations (1 to 60 μg ml^−1)) is “totally inhibited”.

For `C/C1=C/C/C=C(\Cl)CCC2CC(OC(=O)C[C@@H]1O)[C@H]([C@H](O)/C=C(\C)CC(=O)O)O2` (stereo partly shown) [Haterumalide E], the MIC in the test with M. canis macroconidia was < 75 µg/mL; in [2] (setting [5]), 0.5 µg/mL (≈ 1.17 µM); in the test on F. oxysporum conidia, 25 µg/mL (≈ 58.3 µM); in the test on F. culmorum conidia, 5 µg/mL (≈ 11.7 µM); in the test with H. annosum basidiospores, < 50 µg/mL; in [3], 15 µg/mL (≈ 35 µM). In addition, the values for the MIC (in the test on P. ultimum sporangia; in [4]) were 8 µg/mL (≈ 18.7 µM) and 3 µg/mL (≈ 6.99 µM), respectively. For the same compound, the “inhibition … of sclerotia” value in test [2] was “ability to inhibit”. Further, the “inhibition of mycelial growth” value in the test with S. sclerotiorum mycelium is recorded as “ability to inhibit”. Moreover, the “inhibition of ascospore germination” value in test [4] is recorded as “ability to inhibit”.

As to `CC(=O)O[C@H]1CC(=O)OC2CC(CC/C(Cl)=C/C/C=C\1C)O[C@H]2[C@H]1C=C(C)CC(=O)O1` (stereo partly shown) [Haterumalide X], the “inhibition … of sclerotia” value in [2] is reported as “ability to inhibit”. The “inhibition of mycelial growth” value in the test with S. sclerotiorum mycelium was “ability to inhibit”. Moreover, the “inhibition of ascospore germination” value in test [4] is on record as “ability to inhibit”.

Regarding `O=[N+]([O-])c1c(Cl)cccc1-c1c[nH]cc1Cl` [Pyrrolnitrin, pyrrolnitrin, reference compound], the MIC is 1 µg/mL (≈ 3.89 µM) in the test with M. canis macroconidia (M. canis); < 100 µg/mL in [2] (S. sclerotiorum sclerotia, read-out: Minimal Inhibitory Concentration (MIC) to totally inhibit apothecial formation of sclerotia); 20 µg/mL (≈ 77.8 µM) with F. oxysporum conidia (F. oxysporum); 0.06 µg/mL (≈ 0.233 µM) with F. culmorum conidia; 50 µg/mL (≈ 194 µM) in the test with H. annosum basidiospores (H. annosum); 3 µg/mL (≈ 11.7 µM) in [3] (A. fumigatus). Further, the MIC is < 50 µg/mL in the test with P. ultimum sporangia (P. ultimum) and 10 µg/mL (≈ 38.9 µM) in [4] (S. sclerotiorum ascospores).
